Target: Isocitrate dehydrogenase [NADP] cytoplasmic [R132H] (Homo sapiens, UniProt O75874, R132H)
Test: Biological Assay
Description: Mutant IDH1 R132H Biochemical Assay mIDH1 catalyzes the NADPH-dependent reduction of alpha-ketoglutarate (a-KG) to (2R)-2-hydroxyglutarate (2-HG). NADPH consumption was measured by luminescent readout.The biochemical reactions were performed at 32° C. in 384-well plates using a reaction volume of 41 μL and the following assay buffer conditions: 50 mM Tris pH 7.5, 100 mM NaCl, 20 mM MgCl2, 0.05% BSA, 0.01% Brij, 1 μM NADPH, and 250 μM α-KG. The IDH1 R132H enzyme was used in a final concentration of 1.5 nM. Test compounds were used in a concentration range between 0.002 and 10 μM. The final DMSO concentration was 2.4%.The reaction was incubated for 30 minutes, then 40 μL of detection mix (0.75 μg/ml Luciferase, 0.02 U/ml Oxidoreductase, 4 μg/mL FMN, 2 μL/ml decanal/ethanol, 50 mM Tris pH 7.5, 0.5% Glycerin, 0.01% Tween-20, 0.05% BSA) was added. Luminescence was measured on a luminescent reader (10 seconds measuring time, 1 second integration period, 30% sensitivity). The decrease in luminescence is proportional to mIDH1 activity. IC50 values are determined by interpolation from plots of relative luminescence versus inhibitor concentration.

Chain of Isocitrate dehydrogenase [NADP] cytoplasmic [R132H] (O75874 2-414 R132H limits assumed): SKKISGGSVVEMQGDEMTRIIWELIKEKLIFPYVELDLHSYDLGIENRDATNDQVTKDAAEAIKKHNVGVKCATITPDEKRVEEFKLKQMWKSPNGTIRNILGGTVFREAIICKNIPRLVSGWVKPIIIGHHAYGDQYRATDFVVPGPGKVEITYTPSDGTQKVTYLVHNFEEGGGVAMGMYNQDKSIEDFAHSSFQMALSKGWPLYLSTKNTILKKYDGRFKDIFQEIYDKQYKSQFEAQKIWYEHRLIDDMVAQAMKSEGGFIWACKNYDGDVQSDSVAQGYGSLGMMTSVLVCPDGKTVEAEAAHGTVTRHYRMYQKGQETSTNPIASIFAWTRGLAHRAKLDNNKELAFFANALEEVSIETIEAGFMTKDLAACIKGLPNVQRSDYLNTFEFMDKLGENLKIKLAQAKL

Row | IC50 | SMILES
1 | 11 nM | COc1cc2c(cc1CCC(=O)O)nc(Nc1ccc(C(C)C)cc1)n2[C@@H]1C[C@H](C)CC[C@H]1C(C)C [US10370339, Example 2-48]
2 | 14 nM | CC(C)[C@@H]1CC[C@@H](C)C[C@H]1n1c(Nc2ccc(OC(F)(F)F)cc2)nc2cc(CC(=O)O)ccc21 [US10370339, Example 2-31]
3 | 15 nM | COc1cc2c(cc1C(=O)O)nc(Nc1ccc(OC(C)C)cc1)n2[C@@H]1C[C@H](C)CC[C@H]1C(C)C [US10370339, Example 2-30]

From BindingDB's records for patent US10370339 (Bayer Pharma Aktiengesellschaft, 2019)
